{
  "source": "patent US20260028352A1",
  "about": "“MACROCYCLIC IMIDAZO [1,2-B] PYRIDAZINE DERIVATIVE, PREPARATION METHOD THEREFOR, AND USE THEREOF” (SUZHOU LANGRUI BIOPHARMACEUTICAL CO., LTD., priority 2022, published 2026)",
  "key": {"TRKA^WT kinase": {"target": "TRKA^WT kinase (Homo sapiens (Human), UniProt P04629)", "sequence (P04629 33-796)": "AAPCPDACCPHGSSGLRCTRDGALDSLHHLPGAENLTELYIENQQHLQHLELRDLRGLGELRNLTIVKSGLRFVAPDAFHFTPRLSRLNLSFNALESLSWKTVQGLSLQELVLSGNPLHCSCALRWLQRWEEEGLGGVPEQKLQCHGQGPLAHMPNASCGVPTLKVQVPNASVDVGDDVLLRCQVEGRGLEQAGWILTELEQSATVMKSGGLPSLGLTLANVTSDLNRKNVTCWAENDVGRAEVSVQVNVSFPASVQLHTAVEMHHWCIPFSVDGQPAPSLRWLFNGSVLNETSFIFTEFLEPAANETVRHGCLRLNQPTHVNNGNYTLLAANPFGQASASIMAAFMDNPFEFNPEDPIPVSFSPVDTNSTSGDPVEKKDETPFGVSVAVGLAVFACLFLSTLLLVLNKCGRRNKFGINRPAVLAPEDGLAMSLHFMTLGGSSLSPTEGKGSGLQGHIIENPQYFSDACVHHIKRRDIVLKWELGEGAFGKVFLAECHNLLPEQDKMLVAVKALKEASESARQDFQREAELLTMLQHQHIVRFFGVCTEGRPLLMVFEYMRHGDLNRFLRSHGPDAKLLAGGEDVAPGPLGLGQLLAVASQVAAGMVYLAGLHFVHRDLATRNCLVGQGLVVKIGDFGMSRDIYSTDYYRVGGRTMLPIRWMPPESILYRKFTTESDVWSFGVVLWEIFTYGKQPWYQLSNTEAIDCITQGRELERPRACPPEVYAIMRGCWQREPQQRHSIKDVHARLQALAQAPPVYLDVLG", "experiment": "Inhibitory activity against TRKA WT kinase (Caliper mobility shift)", "type": "biochemical", "conditions": "in vitro kinase assay", "experimental": "Kinase Assay Process: 1× Kinase buffer was prepared. […] The compounds were serially diluted into 10 concentrations ([…], 0.15, and 0.05 nM) using a Precision 3-fold dilution method. By using the Echo550 liquid handler, 250 nL of the 100-fold final concentration compound was transferred to an OptiPlate-384F plate. a 2.5× final concentration kinase solution was prepared using 1× Kinase buffer. 10 μL of the 2.5× final concentration kinase solution was added to the compound wells and the positive control wells, and 10 μL of 1× Kinase buffer was added to the negative control wells. The plate was centrifuged at 1000 rpm for 30 seconds, vortexed for mixing, and then incubated at room temperature for 10 minutes. A mixture of 5/3× final concentration of ATP and Kinase Substrate 22 was prepared using 1× Kinase buffer. 15 μL of the mixture of the 5/3× final concentration ATP and the substrate was added to initiate the reaction, the 384-well plate was centrifuged at 1000 rpm for 30 seconds, vortexed for mixing, and incubated at room temperature for the required time. 30 μL of the termination solution was added to stop the kinase reaction, the plate was centrifuged at 1000 rpm for 30 seconds, and vortexed for mixing. The conversion rate was measured using the Caliper EZ Reader.\nData Analysis: the inhibition rate was calculated as follows:\n% Inhibition=(Conversion %_max−conversion %_sample)÷(Conversion %_max−conversion %_min)×100\nConversion %_sample is the conversion rate reading for the sample; Conversion %_min is the average value of the negative control wells, representing the conversion rate for wells without enzyme activity: Conversion %_max is the average value of the positive control wells, representing the conversion rate for wells without compound inhibition. A dose-response curve was fitted using the log concentration of the compound as the X-axis and the percentage inhibition as the Y-axis. The log(inhibitor) vs. response-variable slope of the GraphPad Prism 5 software was used to fit the dose-response curve, and the IC50 value for each compound was obtained. The calculation formula is:\nY=Bottom+(Top−Bottom)/(1+10^((Log IC50−X)*HillSlope)).\nwherein X represents the concentration of the compound to be tested; Y represents the inhibition rate at the concentration X: Top refers to the maximum response: Bottom refers to the baseline response; HillSlope refers to the slope of the curve (i.e., the gradient)."}, "[1]": {"system": "Ba/F3-TPM3-NTRK1-G667C cells", "experiment": "Growth inhibition of Ba/F3-TPM3-NTRK1-G667C cells (Cell Titer-Glo)", "type": "cell-based", "conditions": "72 hours, CTG; read-out: inhibitory activity IC50 Ba/F3-TPM3-NTRK1-G667C", "experimental": "Then the solutions were subjected to a gradient dilution with DMSO: a clean, sterile V-bottom 96-well microplate was placed in the biological safety cabinet. First, 4 μL of DMSO was added to well B2 and 10 μL of DMSO was added to wells B3-B11 respectively; Next, 6 μL of the 10 mM solution was added to well B2. The microplate was pipetted up and down 10 times for mixing. […] Mixing was performed by pipetting up and down 10 times. The solution was diluted in order until well B10. only DMSO was added to well B11 (no compound).\n6× Compound Solution Preparation (6-fold dilution, × represents dilution factor): (Initial final concentration: 10 μM), a clean, sterile V-bottom 96-well microplate was placed in the biological safety cabinet. 99 μL of cell culture medium was added to each well from B2 to G11. By using a 12-channel pipettor, 1 μL of the compound solution prepared in the previous step was added into the corresponding wells. The solutions were pipetted up and down 10 times to mix the solutions. The highest concentration of compound in this step was 60 μM.\nTreatment of Cells: the above-prepared cell culture plate was taken out of the incubator. 20 μL of compound solution from each well was added to the corresponding cell culture wells. The lowest pipetting speed was used and touching the bottom of the plate was avoided. The culture plate was gently shaked to mix the compound solution, then the plate was returned to the incubator for further culture for 72 hours.\nThe highest treatment concentration of the compound was 10 μM. After 72 hours of treatment, the Cell Titer-Glo (CTG) assay was performed. First, the cell culture plate was removed from the CO2 incubator and allowed to stand at room temperature for 30 minutes to ensure uniform temperature of the plate. The pre-prepared Cell Titer-Glo reagent (following the manufacturer's instructions) was taken and allowed to stand at room temperature to thaw. 60 μL of Cell Titer-Glo reagent was added to each well containing cells. The cells were incubated on a horizontal shaker in a dark place at 225 rpm for 1 hour at room temperature. Then, a Tecan Spark microplate reader was used to read the plate using chemiluminescence according to the manufacturer's instructions."}},
  "data": [
    {"smiles": "C[C@@H]1Nc2ccc3ncc(n3n2)-c2cc(ccn2)COc2ccc(F)cc21", "note": "[Example I-15, (S)-(E)-5′-fluoro-6-methyl-4-oxa-7-aza-1(3,6)-imidazo[1,2-b]pyridazina-2(2,4)-pyridina-5(1,2)-benzenacycloheptaphane]", "values": [
      {"measurement": "IC50", "setting": "TRKA^WT kinase", "result": 4.8, "unit": "nM"}
    ]},
    {"smiles": "C[C@@H]1Nc2ccc3ncc(n3n2)-c2cc(ccn2)COc2c(F)cc(F)cc21", "note": "[Example I-17, (S)-(E)-5′,5′-difluoro-6-methyl-4-oxa-7-aza-1(3,6)-imidazo[1,2-b]pyridazine-2(2,4)-pyridina-5(1,2)-benzenacycloheptaphane]", "values": [
      {"measurement": "IC50", "setting": "TRKA^WT kinase", "result": 5.2, "unit": "nM"}
    ]},
    {"smiles": "C[C@@H]1Nc2ccc3ncc(n3n2)-c2cc(ccn2)COc2ccccc21", "note": "[Example I-19, (S)-(E)-6-methyl-4-oxa-7-aza-1(3,6)-imidazo[1,2-b]pyridazine-2(2,4)-pyridina-5(1,2)-benzenacycloheptaphane]", "values": [
      {"measurement": "IC50", "setting": "TRKA^WT kinase", "result": 5.7, "unit": "nM"}
    ]},
    {"smiles": "C[C@@H]1Nc2ccc3ncc(n3n2)-c2cc(ccn2)COc2ncccc21", "note": "[Example I-21, (6S,E)-6-methyl-4-oxa-7-aza-1(3,6)-imidazo[1,2-b]pyridazina-2(2,4), 5(2,3)-dipyridinacycloheptaphane]", "values": [
      {"measurement": "IC50", "setting": "TRKA^WT kinase", "result": 6.1, "unit": "nM"}
    ]},
    {"smiles": "Fc1ccc2c(c1)[C@H]1CCCN1c1ccc3ncc(n3n1)-c1cc(cnn1)CO2", "note": "[Example I-65, (14bR,E)-13-fluoro-14b,15,16,17-tetrahydro-9H-1,19-etheno-4,8-(metheno)benzo[n]imidazo[5,1-h]pyrrolo[1,2-l][1]oxa[5,6,9,10,12]pentaazacyclopentadecine]", "values": [
      {"measurement": "IC50", "setting": "[1]", "result": "< 100", "unit": "nM"}
    ]},
    {"smiles": "Fc1cnc2c(c1)[C@H]1CCCN1c1ccc3ncc(n3n1)-c1cc(cnn1)CO2", "note": "[Example I-67, (14bR,E)-13-fluoro-14b,15,16,17-tetrahydro-9H-1,19-etheno-4,8-(metheno)imidazo[5,1-h]pyrido[3,2-n]pyrrolo[1,2-l][1]oxa[5,6,9,10,12]pentaazacyclopentadecine]", "values": [
      {"measurement": "IC50", "setting": "[1]", "result": "< 100", "unit": "nM"}
    ]},
    {"smiles": "Fc1cnc2c(c1)[C@H]1CCCN1c1ccc3ncc(n3n1)-c1cc(ncn1)CCO2", "note": "[Example I-71, (3^2R,E)-4^5-fluoro-5-oxa-2(3,6)-imidazo[1,2-b]pyridazina-1(4,6)-pyrimidina-4(3,2)-pyridina-3(1,2)-pyrrolidinacycloheptaphane]", "values": [
      {"measurement": "IC50", "setting": "[1]", "result": "< 100", "unit": "nM"}
    ]},
    {"smiles": "C[C@H]1Nc2ccc3ncc(n3n2)-c2cc(ncn2)CCOc2ncc(F)cc21", "note": "[Example I-73, (4R,E)-5^5-fluoro-4-methyl-6-oxa-3-aza-2(3,6)-imidazo[1,2-b]pyridazina-1(4,6)-pyrimidina-5(3,2)-pyridinacyclooctaphane]", "values": [
      {"measurement": "IC50", "setting": "[1]", "result": "< 100", "unit": "nM"}
    ]},
    {"smiles": "C[C@H]1Nc2ccc3ncc(n3n2)-c2cc(ncn2)CCOc2ccc(F)cc21", "note": "[Example I-74, (4R,E)-5′-fluoro-4-methyl-6-oxa-3-aza-2(3,6)-imidazo[1,2-b]pyridazina-1(4,6)-pyrimidina-5(1,2)-benzenacyclooctaphane]", "values": [
      {"measurement": "IC50", "setting": "[1]", "result": "< 100", "unit": "nM"}
    ]},
    {"smiles": "C[C@H]1Nc2ccc3ncc(n3n2)-c2cc(ccn2)CCOc2ncc(F)cc21", "note": "[Example I-75, (4R,E)-5^5-fluoro-4-methyl-6-oxa-3-aza-2(3,6)-imidazo[1,2-b]pyridazina-1(2,4), 5(3,2)-dipyridinacyclooctaphane]", "values": [
      {"measurement": "IC50", "setting": "[1]", "result": "< 100", "unit": "nM"}
    ]},
    {"smiles": "C[C@H]1Nc2ccc3ncc(n3n2)-c2cc(ccn2)CCOc2ccc(F)cc21", "note": "[Example I-76, (4R,E)-5-fluoro-4-methyl-6-oxa-3-aza-2(3,6)-imidazo[1,2-b]pyridazina-1(2,4)-pyridina-5(1,2)-benzenacyclooctaphane]", "values": [
      {"measurement": "IC50", "setting": "[1]", "result": "< 100", "unit": "nM"}
    ]},
    {"smiles": "C[C@H]1Nc2ccc3ncc(n3n2)-c2cc(ncn2)COc2ncc(F)cc21", "note": "[Example I-77, (6R,E)-5^5-fluoro-6-methyl-4-oxa-7-aza-1(3,6)-imidazo[1,2-b]pyridazina-2(4,6)-pyrimidina-5(2,3)-pyridinacycloheptaphane]", "values": [
      {"measurement": "IC50", "setting": "[1]", "result": "< 100", "unit": "nM"}
    ]},
    {"smiles": "C[C@H]1Nc2ccc3ncc(n3n2)-c2cc(ncn2)COc2ccc(F)cc21", "note": "[Example I-78, (6R,E)-5^4-fluoro-6-methyl-4-oxa-7-aza-1(3,6)-imidazo[1,2-b]pyridazina-2(4,6)-pyrimidina-5(1,2)-benzenacycloheptaphane]", "values": [
      {"measurement": "IC50", "setting": "[1]", "result": "< 100", "unit": "nM"}
    ]},
    {"smiles": "C[C@H]1Nc2ccc3ncc(n3n2)-c2nccc(n2)COc2ncc(F)cc21", "note": "[Example I-79, (6R,E)-5^5-fluoro-6-methyl-4-oxa-7-aza-1(3,6)-imidazo[1,2-b]pyridazina-2(2,4)-pyrimidina-5(2,3)-pyridinacycloheptaphane]", "values": [
      {"measurement": "IC50", "setting": "[1]", "result": "< 100", "unit": "nM"}
    ]},
    {"smiles": "C[C@H]1Nc2ccc3ncc(n3n2)-c2nccc(n2)COc2ccc(F)cc21", "note": "[Example I-80, (6R,E)-5^4-fluoro-6-methyl-4-oxa-7-aza-1(3,6)-imidazo[1,2-b]pyridazina-2(2,4)-pyrimidina-5(1,2)-benzenacycloheptaphane]", "values": [
      {"measurement": "IC50", "setting": "[1]", "result": "< 100", "unit": "nM"}
    ]},
    {"smiles": "C[C@H]1Nc2ccc3ncc(n3n2)-c2cc(cnn2)COc2ncc(F)cc21", "note": "[Example I-81, (6R,E)-5^5-fluoro-6-methyl-4-oxa-7-aza-1(3,6)-imidazo[1,2-b]pyridazina-2(3,5)-pyridazina-5(2,3)-pyridinacycloheptaphane]", "values": [
      {"measurement": "IC50", "setting": "[1]", "result": "< 100", "unit": "nM"}
    ]},
    {"smiles": "C[C@H]1Nc2ccc3ncc(n3n2)-c2cc(cnn2)COc2ccc(F)cc21", "note": "[Example I-82, (6R,E)-54-fluoro-6-methyl-4-oxa-7-aza-1(3,6)-imidazo[1,2-b]pyridazina-2(3,5)-pyridazina-5(1,2)-benzenacycloheptaphane]", "values": [
      {"measurement": "IC50", "setting": "[1]", "result": "< 100", "unit": "nM"}
    ]},
    {"smiles": "C[C@H]1Nc2ccc3ncc(n3n2)-c2nccc(n2)CCOc2ncc(F)cc21", "note": "[Example I-83, (4R,E)-5′-fluoro-4-methyl-6-oxa-3-aza-2(3,6)-imidazo[1,2-b]pyridazina-1(2,4)-pyrimidina-5(3,2)-pyridinacyclooctaphane]", "values": [
      {"measurement": "IC50", "setting": "[1]", "result": "< 100", "unit": "nM"}
    ]},
    {"smiles": "C[C@H]1Nc2ccc3ncc(n3n2)-c2nccc(n2)CCOc2ccc(F)cc21", "note": "[Example I-84, (4R,E)-5^5-fluoro-4-methyl-6-oxa-3-aza-2(3,6)-imidazo[1,2-b]pyridazina-1(2,4)-pyrimidina-5(1,2)-benzenacyclooctaphane]", "values": [
      {"measurement": "IC50", "setting": "[1]", "result": "< 100", "unit": "nM"}
    ]},
    {"smiles": "Fc1ccc2c(c1)[C@H]1CCCN1c1ccc3ncc(n3n1)-c1nccc(n1)CCO2", "note": "[Example I-85, (3^2R,E)-4^5-fluoro-5-oxa-2(3,6)-imidazo[1,2-b]pyridazina-1(2,4)-pyrimidina-3(1,2)-pyrrolidina-4(1,2)-benzenacycloheptaphane]", "values": [
      {"measurement": "IC50", "setting": "[1]", "result": "< 100", "unit": "nM"}
    ]},
    {"smiles": "Fc1cnc2c(c1)[C@H]1CCCN1c1ccc3ncc(n3n1)-c1nccc(n1)CCO2", "note": "[Example I-87, (3^2R,E)-4^5-fluoro-5-oxa-2(3,6)-imidazo[1,2-b]pyridazina-1(2,4)-pyrimidina-4(3,2)-pyridina-3(1,2)-pyrrolidinacycloheptaphane]", "values": [
      {"measurement": "IC50", "setting": "[1]", "result": "< 100", "unit": "nM"}
    ]},
    {"smiles": "Fc1ccc2c(c1)[C@H]1CCCN1c1ccc3ncc(n3n1)-c1cc(cnn1)CCO2", "note": "[Example I-91, (3^2R,E)-4^5-fluoro-5-oxa-2(3,6)-imidazo[1,2-b]pyridazina-1(3,5)-pyridazina-3(1,2)-pyrrolidina-4(1,2)-benzenacycloheptaphane]", "values": [
      {"measurement": "IC50", "setting": "[1]", "result": "< 100", "unit": "nM"}
    ]},
    {"smiles": "Fc1cnc2c(c1)[C@H]1CCCN1c1ccc3ncc(n3n1)-c1cc(cnn1)CCO2", "note": "[Example I-93, (3^2R,E)-4^5-fluoro-5-oxa-2(3,6)-imidazo[1,2-b]pyridazina-1(3,5)-pyridazina-4(3,2)-pyridina-3(1,2)-pyrrolidinacycloheptaphane]", "values": [
      {"measurement": "IC50", "setting": "[1]", "result": "< 100", "unit": "nM"}
    ]}
  ]
}
